Test results published in patent US20260035411A1, “CRYSTALLINE FORMS OF A PCSK9 INHIBITOR, COMPOSITIONS AND USES” (MERCK SHARP & DOHME LLC, priority 2022, published 2026).
“Also recorded” adds a separate entry of the source. Read-outs that look alike come from different tables or passages of the source.

Assays:
[1] = Adsorption/desorption cycles under relative humidity (weight increase, hygroscopicity)
[2] = XRPD analysis before and after adsorption/desorption cycles (physical stability, crystallinity); assay type: physicochemical
Protocol: X-ray powder diffraction studies are widely used to characterize molecular structures, crystallinity, and polymorphism. The X-ray powder diffraction patterns disclosed herein were generated on a Philips Analytical X′Pert PRO X-ray Diffraction System with PW3040/60 console. A PW3373/00 ceramic Cu LEF X-ray tube K-Alpha radiation was used as the source.
In addition, the chloride salt requires −20° C. storage to minimize chemical degradation while the acetate and caprate salts are less prone to degradation at higher temperatures. […] The stability of crystalline forms of the compounds of Formula I were characterized by XRPD under relative humidity conditions that simulate potential storage conditions.

COc1ccc(C[C@@H]2NC(=O)[C@H]([C@@H](C)O)NC(=O)[C@@H]3[C@@H]4CCN3C(=O)[C@@H]3Cc5cn(c6ccc(F)cc56)CCCCCCN(Cc5ccc(cc5)CCNC(=O)[C@]5(C)CCCN5C2=O)C(=O)CCC(=O)N[C@@H](C)C(=O)N[C@H](CNC(=O)CCCCC[N+](C)(C)C)C(=O)N[C@@H](Cc2cccc(c2)CNC(=O)CO4)C(=O)N3)cc1 [Caprate 5]
hysteresis during the desorption steps [1]: Slight hysteresis is observed
crystallinity by XRPD after adsorption/desorption [2]: retains some crystallinity; also recorded: loses crystallinity; also recorded: decrease in crystallinity

COc1ccc(C[C@@H]2NC(=O)[C@H]([C@@H](C)O)NC(=O)[C@@H]3[C@@H]4CCN3C(=O)[C@@H]3Cc5cn(c6ccc(F)cc56)CCCCCCN(Cc5ccc(cc5)CCNC(=O)[C@]5(C)CCCN5C2=O)C(=O)CCC(=O)N[C@@H](C)C(=O)N[C@H](CNC(=O)CCCCC[N+](C)(C)C)C(=O)N[C@@H](Cc2cccc(c2)CNC(=O)CO4)C(=O)N3)cc1 [Acetate 4]
hysteresis during the desorption step ([1]; 5-95% RH cycle (FIG. 31A)): Hysteresis is observed
increase in weight ([1]; at 55% RH (FIG. 30A)): ~9%
increase in weight ([1]; at 95% RH (FIG. 31A, 33A)): ~40%
crystallinity by XRPD after adsorption/desorption ([2]; 5-95-5% RH adsorption/desorption cycle (FIG. 31B, 33B)): loses crystallinity
crystallinity by XRPD after adsorption/desorption ([2]; two adsorption/desorption cycles of 5-55% RH (FIG. 30B)): retains minimal crystallinity; also recorded: decrease in crystallinity

COc1ccc(C[C@@H]2NC(=O)[C@H]([C@@H](C)O)NC(=O)[C@@H]3[C@@H]4CCN3C(=O)[C@@H]3Cc5cn(c6ccc(F)cc56)CCCCCCN(Cc5ccc(cc5)CCNC(=O)[C@]5(C)CCCN5C2=O)C(=O)CCC(=O)N[C@@H](C)C(=O)N[C@H](CNC(=O)CCCCC[N+](C)(C)C)C(=O)N[C@@H](Cc2cccc(c2)CNC(=O)CO4)C(=O)N3)cc1 [water-free Caprate 3]
increase in weight [1]: ~9.4%
crystallinity by XRPD after adsorption/desorption [2]: retains crystallinity

COc1ccc(C[C@@H]2NC(=O)[C@H]([C@@H](C)O)NC(=O)[C@@H]3[C@@H]4CCN3C(=O)[C@@H]3Cc5cn(c6ccc(F)cc56)CCCCCCN(Cc5ccc(cc5)CCNC(=O)[C@]5(C)CCCN5C2=O)C(=O)CCC(=O)N[C@@H](C)C(=O)N[C@H](CNC(=O)CCCCC[N+](C)(C)C)C(=O)N[C@@H](Cc2cccc(c2)CNC(=O)CO4)C(=O)N3)cc1 [Caprate 3]
increase in weight [1]: ~4.9%
relative humidity by which H2O is readily absorbed [1]: 25-35 % RH
relative humidity until which H2O is not lost [1]: 15 % RH
crystallinity by XRPD after adsorption/desorption [2]: maintains its crystallinity; also recorded: retains crystallinity
